{
  "source": "patent US20190388559A1",
  "about": "“ENCAPSULATION OF METAL OXIDE NANOMATERIALS FOR CONTROLLED RELEASE AND TARGETED DELIVERY” (Boise State University, priority 2018, published 2019)",
  "system": "T47D breast cancer cells",
  "assay": "Alamar Blue viability of T47D cells with or without UV triggered release",
  "assay_type": "cell-based",
  "conditions": "48 hours, free nZnO 16.3 μg/mL, free PTX 40 nM",
  "experimental": "Both cell lines were cultured in log phase using RPMI 1640 media supplemented with 10% fetal bovine serum (FBS), 1% penicillin/streptomycin, 2 mM L-glutamine, and for T47D cells, 0.2 Units/mL of bovine insulin per American Type Culture Collection (ATCC) recommendations.\nFor viability assessments, both Jurkat and T47D cells were cultured following ATCC recommendations noted above. For the Jurkat T cell line, the cells were first washed with PPH free RPMI 1640 and then seeded at a concentration of 2.5×10^5 cells/mL using the same media in a 96 well plate. For T47D cells, the cells were first seeded in the culture media at 1.0×10^5 cells/well in a 24 well plate the day prior to treatment to allow for cell attachment. The media was then gently aspirated and replaced with the PPH free RPMI 1640 media prior to NP treatment. […]\nOnce treated with NPs, the cells were then cultured for 48 hours at 37° C. and 5% CO2. […] After optimizing the UV irradiation protocol, required UV exposure was determined to be 3 minutes for Jurkat cells and 2 minutes for T47D cells to re-establish the toxicity of the nZnO while minimizing effects to the cellular viability. Cell viability was assessed using the Alamar Blue metabolic assay. […] The fluorescence intensity measurements were performed using a Biotek Synergy MX plate reader using an excitation/emission of 530/590 nm.",
  "data": [
    {"smiles": "CC(=O)O[C@H]1C(=O)[C@@]2(C)[C@H]([C@H](OC(=O)c3ccccc3)[C@]3(O)C[C@H](OC(=O)[C@H](O)[C@@H](NC(=O)c4ccccc4)c4ccccc4)C(C)=C1C3(C)C)[C@]1(OC(C)=O)CO[C@@H]1C[C@@H]2O", "note": "[PTX, Paclitaxel]", "values": [
      {"measurement": "effect of free (non-encapsulated) controls on viability", "result": "somewhat similar effect as the non-triggered release Enc-nZnO/PTX group"}
    ]}
  ]
}
